Assay results from patent US8329706B2, “Oxazolidinone derivatives” (Actelion Pharmaceuticals Ltd., priority 2009, dated 2012).

Legend:
[1] = target: T1, human orexin-1 receptor (Homo sapiens, UniProt O43613); assay: FLIPR intracellular calcium assay, orexin receptor antagonistic activity (OX1); assay type: cell-based; conditions: CHO cells expressing human orexin-1 receptor; agonist 3 nM orexin-A; normalized to on-plate reference; * geomean n = 5, *2 geomean n = 2
T1 construct: expressed in transfected cells; host or cells: CHO cells (G418 selection)
T1 sequence (O43613 1-425): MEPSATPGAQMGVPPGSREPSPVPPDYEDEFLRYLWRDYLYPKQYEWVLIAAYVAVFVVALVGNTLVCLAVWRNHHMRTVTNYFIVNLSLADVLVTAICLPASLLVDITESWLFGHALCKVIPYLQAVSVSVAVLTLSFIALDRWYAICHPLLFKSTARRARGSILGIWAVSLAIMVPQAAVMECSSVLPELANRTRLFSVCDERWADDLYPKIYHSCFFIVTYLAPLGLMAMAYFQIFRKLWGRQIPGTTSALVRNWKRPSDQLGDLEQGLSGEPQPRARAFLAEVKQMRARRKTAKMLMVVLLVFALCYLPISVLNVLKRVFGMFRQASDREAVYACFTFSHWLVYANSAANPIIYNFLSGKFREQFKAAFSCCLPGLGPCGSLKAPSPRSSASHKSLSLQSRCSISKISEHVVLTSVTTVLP
Procedure: (§1) The orexin receptor antagonistic activity of the compounds of formula (I) is determined in accordance with the following experimental method.
(§2) Chinese hamster ovary (CHO) cells expressing the human orexin-1 receptor and the human orexin-2 receptor, respectively, are grown in culture medium (Ham F-12 with L-Glutamine) containing 300 μg/ml G418, 100 U/ml penicillin, 100 μg/ml streptomycin and 10% heat inactivated fetal calf serum (FCS). The cells are seeded at 20′000 cells/well into 384-well black clear bottom sterile plates (Greiner). The seeded plates are incubated overnight at 37° C. in 5% CO2.
(§3) Human orexin-A as an agonist is prepared as 1 mM stock solution in MeOH:water (1:1), diluted in HBSS containing 0.1% bovine serum albumin (BSA), NaHCO3: 0.375 g/l and 20 mM HEPES for use in the assay at a final concentration of 3 nM.
(§4) Antagonists are prepared as 10 mM stock solution in DMSO, then diluted in 384-well plates using DMSO followed by a transfer of the dilutions into in HBSS containing 0.1% bovine serum albumin (BSA), NaHCO3: 0.375 g/l and 20 mM HEPES. On the day of the assay, 50 μl of staining buffer (HBSS containing 1% FCS, 20 mM HEPES, NaHCO3: 0.375 g/l, 5 mM probenecid (Sigma) and 3 μM of the fluorescent calcium indicator fluo-4 AM (1 mM stock solution in DMSO, containing 10% pluronic) is added to each well. The 384-well cell-plates are incubated for 50 min at 37° C. in 5% CO2 followed by equilibration at rt for 30-120 min before measurement.
(§5) Within the Fluorescent Imaging Plate Reader (FLIPR Tetra, Molecular Devices), antagonists are added to the plate in a volume of 10 μl/well, incubated for 10 min and finally 10 μl/well of agonist is added. Fluorescence is measured for each well at 1 second intervals, and the height of each fluorescence peak is compared to the height of the fluorescence peak induced by 3 nM orexin-A with vehicle in place of antagonist. For each antagonist, the IC50 value (the concentration of compound needed to inhibit 50% of the agonistic response) is determined and normalized using the obtained IC50 value of a on-plate reference compound. Optimized conditions were achieved by adjustment of pipetting speed and cell splitting regime. The calculated IC50 values of the compounds may fluctuate depending on the daily cellular assay performance. Fluctuations of this kind are known to those skilled in the art.

[2] = target: T2, human orexin-2 receptor (Homo sapiens, UniProt O43614); assay: FLIPR intracellular calcium assay, orexin receptor antagonistic activity (OX2); assay type: cell-based; conditions: CHO cells expressing human orexin-2 receptor; agonist 3 nM orexin-A; normalized to on-plate reference; * geomean n = 5, *2 geomean n = 2
T2 construct: expressed in transfected cells; host or cells: CHO cells (G418 selection)
T2 sequence (O43614 1-444): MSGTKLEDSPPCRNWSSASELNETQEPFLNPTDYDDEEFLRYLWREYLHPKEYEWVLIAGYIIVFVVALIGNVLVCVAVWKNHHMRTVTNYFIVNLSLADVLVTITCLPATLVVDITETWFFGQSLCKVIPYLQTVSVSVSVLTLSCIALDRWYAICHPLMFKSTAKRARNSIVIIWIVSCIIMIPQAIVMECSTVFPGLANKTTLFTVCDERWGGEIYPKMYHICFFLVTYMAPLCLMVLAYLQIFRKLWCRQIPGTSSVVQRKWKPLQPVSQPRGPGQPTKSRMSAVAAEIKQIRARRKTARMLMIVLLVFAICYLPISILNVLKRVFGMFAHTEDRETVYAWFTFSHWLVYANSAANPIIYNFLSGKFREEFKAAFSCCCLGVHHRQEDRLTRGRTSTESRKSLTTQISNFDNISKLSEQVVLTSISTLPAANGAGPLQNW
Procedure: as §1, §2, §3, §4, §5

IC50 [1] | IC50 [2] | SMILES
> 10000 nM | 839 nM | CCOc1ccccc1C1OCC(=O)N1Cc1ccc(C(F)(F)F)cc1F (stereo not drawn) [Example 22, 2-(2-Ethoxy-phenyl)-3-(2-fluoro-4-trifluoromethyl-benzyl)-oxazolidin-4-one]
162 nM | 477 nM | COc1cccc(OC)c1C1OCC(=O)N1Cc1cc(C(F)(F)F)cc(Cl)c1F (stereo not drawn) [Example 37, 3-(3-Chloro-2-fluoro-5-trifluoromethyl-benzyl)-2-(2,6-dimethoxy-phenyl)-oxazolidin-4-one]
139 nM | 212 nM | COc1cccc(OC)c1C1OC(C)(C)C(=O)N1Cc1ccc(Oc2ccccc2)nc1 (stereo not drawn) [Example 89, 2-(2,6-Dimethoxy-phenyl)-5,5-dimethyl-3-(6-phenoxy-pyridin-3-ylmethyl)-oxazolidin-4-one]
2990 nM | 113 nM | COc1cccc(OC)c1C1OCC(=O)N1Cc1ccc(OC(F)F)cc1 (stereo not drawn) [Example 49, 3-(4-Difluoromethoxy-benzyl)-2-(2,6-dimethoxy-phenyl)-oxazolidin-4-one]
> 10000 nM | 652 nM | CCOc1ccccc1C1OCC(=O)N1Cc1ccc(F)c(F)c1 (stereo not drawn) [Example 26, 3-(3,4-Difluoro-benzyl)-2-(2-ethoxy-phenyl)-oxazolidin-4-one]
198 nM | 29 nM | COc1cccc(OC)c1C1OCC(=O)N1Cc1ccc(OC(F)(F)F)c(Cl)c1 (stereo not drawn) [Example 40, 3-(3-Chloro-4-trifluoromethoxy-benzyl)-2-(2,6-dimethoxy-phenyl)-oxazolidin-4-one]
8020 nM | 661 nM | CCOc1ccccc1C1OCC(=O)N1Cc1cc(C)ccc1C(F)(F)F (stereo not drawn) [Example 28, 2-(2-Ethoxy-phenyl)-3-(5-methyl-2-trifluoromethyl-benzyl)-oxazolidin-4-one]
1380 nM | 730 nM | COc1cccc(OC)c1C1OCC(=O)N1Cc1ccc(F)c(C(F)(F)F)c1 (stereo not drawn) [Example 38, 2-(2,6-Dimethoxy-phenyl)-3-(4-fluoro-3-trifluoromethyl-benzyl)-oxazolidin-4-one]
150 nM | 1660 nM | COc1cccc(OC)c1C1OC(C)(C)C(=O)N1Cc1ccc2c(c1)OCO2 (stereo not drawn) [Example 71, 3-Benzo[1,3]dioxol-5-ylmethyl-2-(2,6-dimethoxy-phenyl)-5,5-dimethyl-oxazolidin-4-one]
9370 nM | 627 nM | CCOc1ccccc1C1OCC(=O)N1Cc1ccc(Cl)c(F)c1 (stereo not drawn) [Example 17, 3-(4-Chloro-3-fluoro-benzyl)-2-(2-ethoxy-phenyl)-oxazolidin-4-one]
6470 nM | 298 nM | COc1cccc(OC)c1C1OCC(=O)N1Cc1ccc(OC(F)(F)F)cc1 (stereo not drawn) [Example 34, 2-(2,6-Dimethoxy-phenyl)-3-(4-trifluoromethoxy-benzyl)-oxazolidin-4-one]
> 10000 nM | 55 nM | CCOc1ccccc1C1OCC(=O)N1Cc1ccc(OC(F)(F)F)cc1 (stereo not drawn) [Example 6, 2-(2-Ethoxy-phenyl)-3-(4-trifluoromethoxy-benzyl)-oxazolidin-4-one]
> 10000 nM | 262 nM | CCOc1ccccc1C1OCC(=O)N1Cc1ccccc1F (stereo not drawn) [Example 20, 2-(2-Ethoxy-phenyl)-3-(2-fluoro-benzyl)-oxazolidin-4-one]
1200 nM | 8330 nM | COc1cccc(OC)c1C1OC(C)(C)C(=O)N1Cc1ccc(Oc2ccc(C)nn2)cc1 (stereo not drawn) [Example 93, 2-(2,6-Dimethoxy-phenyl)-5,5-dimethyl-3-[4-(6-methyl-pyridazin-3-yloxy)-benzyl]-oxazolidin-4-one]
> 10000 nM | 413 nM | COc1cccc(OC)c1C1OCC(=O)N1Cc1ccc(C(F)(F)F)cc1 (stereo not drawn) [Example 32, 2-(2,6-Dimethoxy-phenyl)-3-(4-trifluoromethyl-benzyl)-oxazolidin-4-one]
1490 nM | 376 nM | COc1cccc(OC)c1C1OCC(=O)N1Cc1ccc(Cl)cc1Cl (stereo not drawn) [Example 42, 3-(2,4-Dichloro-benzyl)-2-(2,6-dimethoxy-phenyl)-oxazolidin-4-one]
1340 nM | 632 nM | COc1cccc(OC)c1C1OCC(=O)N1Cc1ccc(F)c(Cl)c1 (stereo not drawn) [Example 36, 3-(3-Chloro-4-fluoro-benzyl)-2-(2,6-dimethoxy-phenyl)-oxazolidin-4-one]
3050 nM | 844 nM | CCOc1ccccc1C1OCC(=O)N1Cc1ccc(Cl)cc1Cl (stereo not drawn) [Example 30, 3-(2,4-Dichloro-benzyl)-2-(2-ethoxy-phenyl)-oxazolidin-4-one]
345 nM | 366 nM | COCCOc1cccc(OC)c1C1OC(C)(C)C(=O)N1Cc1ccc(Oc2ccccc2)cc1 (stereo not drawn) [Example 98, 2-[2-Methoxy-6-(2-methoxy-ethoxy)-phenyl]-5,5-dimethyl-3-(4-phenoxy-benzyl)-oxazolidin-4-one]
336 nM | 110 nM | CC1(C)OC(c2c(F)cccc2F)N(Cc2ccc(OC(F)(F)F)c(Cl)c2)C1=O (stereo not drawn) [Example 82, 3-(3-Chloro-4-trifluoromethoxy-benzyl)-2-(2,6-difluoro-phenyl)-5,5-dimethyl-oxazolidin-4-one]
> 10000 nM | 199 nM | CCOc1ccccc1C1OCC(=O)N1Cc1ccc(F)cc1 (stereo not drawn) [Example 25, 2-(2-Ethoxy-phenyl)-3-(4-fluoro-benzyl)-oxazolidin-4-one]
178 nM | 108 nM | COc1cccc(OC)c1C1O[C@H](C)C(=O)N1Cc1ccc(OC(F)(F)F)c(F)c1 (stereo partly drawn) [Example 55, 2-(2,6-Dimethoxy-phenyl)-3-(3-fluoro-4-trifluoromethoxy-benzyl)-(R)-5-methyl-oxazolidin-4-one]
4100 nM | 795 nM | COc1cccc(OC)c1C1OCC(=O)N1Cc1ccc(Cl)c(F)c1 (stereo not drawn) [Example 39, 3-(4-Chloro-3-fluoro-benzyl)-2-(2,6-dimethoxy-phenyl)-oxazolidin-4-one]
9170 nM | 584 nM | CCOc1ccccc1C1OCC(=O)N1Cc1ccc(F)c(C)c1 (stereo not drawn) [Example 8, 2-(2-Ethoxy-phenyl)-3-(4-fluoro-3-methyl-benzyl)-oxazolidin-4-one]
2180 nM | 65 nM | COc1cccc(C(F)(F)F)c1C1OC(C)(C)C(=O)N1Cc1ccc(Oc2ccccc2)cc1 (stereo not drawn) [Example 86, 2-(2-Methoxy-6-trifluoromethyl-phenyl)-5,5-dimethyl-3-(4-phenoxy-benzyl)-oxazolidin-4-one]
1760 nM | 123 nM | COc1cccc(OC)c1C1O[C@H](C)C(=O)N1Cc1ccc(OCC2CC2)cc1 (stereo partly drawn) [Example 75, 3-(4-Cyclopropylmethoxy-benzyl)-2-(2,6-dimethoxy-phenyl)-(R)-5-methyl-oxazolidin-4-one]
64 nM | 1090 nM | COc1cccc(OC)c1C1OC(C)(C)C(=O)N1Cc1ccc(-c2ccccc2)cc1 (stereo not drawn) [Example 87, 3-Biphenyl-4-ylmethyl-2-(2,6-dimethoxy-phenyl)-5,5-dimethyl-oxazolidin-4-one]
